Results published in PubChem BioAssay (NCI).
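1) Cells in 96-well plates. 2) Compound, 48 h, 5 concentrations. 3) Linear interpolation between surrounding doses. 4) Unreached endpoint = highest concentration. At the GI50, growth is halved. The concentration for full growth arrest is given as TGI.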

Legend:
Assay in all cases: growth of human tumour cells (NCI), 48 h
HCT-116 colon = test system: HCT-116 colon
HL-60(TB) leukemia = test system: HL-60(TB) leukemia
LOX IMVI melanoma = test system: LOX IMVI melanoma
NCI/ADR-RES ovarian = test system: NCI/ADR-RES ovarian
OVCAR-4 ovarian = test system: OVCAR-4 ovarian
OVCAR-5 ovarian = test system: OVCAR-5 ovarian
PC-3 prostate = test system: PC-3 prostate
RPMI-8226 leukemia = test system: RPMI-8226 leukemia
SF-268 CNS = test system: SF-268 CNS
SNB-19 CNS = test system: SNB-19 CNS

Compound	GI50 (HCT-116 colon) [µM]	TGI (HCT-116 colon) [µM]	GI50 (HL-60(TB) leukemia) [µM]	TGI (HL-60(TB) leukemia) [µM]	GI50 (LOX IMVI melanoma) [µM]	TGI (LOX IMVI melanoma) [µM]	GI50 (NCI/ADR-RES ovarian) [µM]	TGI (NCI/ADR-RES ovarian) [µM]	GI50 (OVCAR-4 ovarian) [µM]	TGI (OVCAR-4 ovarian) [µM]	GI50 (OVCAR-5 ovarian) [µM]	TGI (OVCAR-5 ovarian) [µM]	GI50 (PC-3 prostate) [µM]	TGI (PC-3 prostate) [µM]	GI50 (RPMI-8226 leukemia) [µM]	TGI (RPMI-8226 leukemia) [µM]	GI50 (SF-268 CNS) [µM]	TGI (SF-268 CNS) [µM]	GI50 (SNB-19 CNS) [µM]	TGI (SNB-19 CNS) [µM]
CN1CCN(c2ccc(NC3=CC(=O)c4ncncc4C3=O)cc2)CC1	0.229	0.545	0.249	0.635	0.192	0.401	0.294	1.01	0.147	0.28	0.285	0.801	0.289	1.14	0.261	0.75	1.77	5.73	1.52	2.93
Cc1cc(N(CCNc2ccnc3cc(Cl)ccc23)Cc2ccc3c(c2)OCO3)nc(N2CCCC2)n1	0.532	2.14	1.95	4.06	1.6	3.16	1.79	5.56	1.39	3.24	1.87	4.95	2.85	14	1.47	3.99	2.2	7.16	2.53	11.3
COC(=O)CC1=C(C)/C(=C/c2[nH]c(-c3ccc[nH]3)cc2OC)N=C1C	0.0819	1.16	0.154	0.882	0.042	0.159	0.324	2.34	0.147	4.03	0.195	6.06	0.21	11.2	0.0449	0.499	0.388	10.9	1.35	14.2
CN(C)c1ccc2[nH]c3c(C(N)=O)cc(=O)c(=O)c=3oc2c1	0.304	1.22	0.668	4.04	0.334	> 100	1.81	8.39	1.67	6.42	3.36	17.2	2.77	> 100	0.502	> 100	3.04	> 100	2.34	9.81
CCC(c1ccccc1)c1cc(C(C)(C)C)cc(C(C)(C)C)c1O (centres undefined)		25.5				31.9		28.7		29.3		26.6		31.6		28.5		28.9		32.7
CSc1nc2c(c(=O)n1C)C(c1ccccc1)C1=C(N2)/C(=C/c2ccccc2)CCC1 (centres undefined)	3.41	14.3	0.721	48.4	3.01	12.8	4.07	> 100	30.8	> 100	71.7	> 100	7.11	> 100	5.31	> 100	10.7	> 100	22.4	> 100
O=C(CI)Nc1ccc(Br)cc1	1.88	3.45			0.326	1.46	3.03	9.76	2.92	7.25	2.14	4.81	2.43	6.22			1.8	3.65	15.1	33.5
N#CC1=C(N)OC2=C(CCOc3c2ccc2ccccc32)C1c1ccc(Br)cc1 (centres undefined)	15.1	47.7	17	37.6			33.4	> 100	27.1	> 100	96.3	> 100	19.9	53.6	13.5	40.8	27.8	> 100	77.7	> 100
O=C1/C(=C/c2ccc(C(F)(F)F)cc2)COc2ccc(O)c(O)c21	1.35	3.12	0.52	3.06	0.377	1.48	1.8	6.59	1.39	2.72	1.6	3.09			0.238	0.607	1.67	3.83	1.48	2.87
COc1ccc(C(=O)C(C(=O)C(=O)NCCCNC(=O)C(=O)C(C(=O)c2ccc(OC)cc2)c2ccc(OC)cc2)c2ccc(OC)cc2)cc1 (centres undefined)		> 100		> 100		> 100				> 100		> 100				> 100		> 100		> 100
O=C(C(=CN1CCN(C(=O)c2ccco2)C1=S)C(=O)c1ccccc1)c1ccccc1	7.93	17	9.89	34.9	1.22	4.1	9.18	19	16.1	42.8			23.6	> 50	8.41	> 50			29.2	> 50
CSc1nnc(C(C#N)C#N)nn1		> 100		> 100		> 100				> 100		> 100				> 100		> 100		> 100
O=C1C=CC(=O)c2c1nc(CBr)[nH]c2=O		> 100		55		> 100		> 100		> 100		> 100		> 100		> 100		> 100		
Cc1ccc(Nc2nc(-c3ccc(-c4ccc([N+](=O)[O-])cc4)o3)cs2)cc1		> 100		> 100		> 100				> 100		> 100				> 100		> 100		> 100
CCOCCOCCOCCOCCOCCOCCOCCOCCOCCO (tested in a mixture with another compound)	1.01	4.68	0.649	1.59	0.81	2.9	3.96	> 32.5	0.717	2.84			1.01	6.5			1.61	20.8		
